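48-hour exposure; five concentrations; linearly interpolated endpoints. GI50: concentration for 50% inhibition of growth.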 Activity calls are given as the source filed them. No stated cut-off is given here; in the data, active = GI50 up to about 1.1 µM and inactive = higher.
What was measured:
Assay in all cases: inhibition of tumour cell growth, NCI panel, 48 h
MCF7 = system: MCF7
CCRF-CEM = system: CCRF-CEM
A549 = system: A549
HOP-92 = system: HOP-92
HCT-116 = system: HCT-116
786-0 = system: 786-0
SR = system: SR
NCI-H460 = system: NCI-H460
MOLT-4 = system: MOLT-4
HOP-62 = system: HOP-62
OVCAR-3 = system: OVCAR-3
SN12C = system: SN12C
SK-MEL-5 = system: SK-MEL-5
UO-31 = system: UO-31
UACC-257 = system: UACC-257
RPMI-8226 = system: RPMI-8226
IGROV-1 = system: IGROV-1
HL-60 = system: HL-60
SF-295 = system: SF-295
RXF 393 = system: RXF 393

`CC(=O)NC1=C(OS(=O)(=O)c2ccc(C)cc2)CN(C)C1=O` was tested, and the GI50 (MCF7) was 2.89 µM (inactive), the GI50 (CCRF-CEM) was 1.77 µM (inactive) and the GI50 (A549) was 3.5 µM (inactive). The GI50 (HOP-92) was 2.84 µM (inactive), the GI50 (HCT-116) was 3.15 µM (inactive) and the GI50 (786-0) was 3.79 µM (inactive). For the same compound, the GI50 (SR) was 4.6 µM (inactive), the GI50 (NCI-H460) was 2.37 µM (inactive) and the GI50 (MOLT-4) was 3.25 µM (inactive). For the same compound, the GI50 (HOP-62) was 2.88 µM (inactive), the GI50 (OVCAR-3) was 2.74 µM (inactive) and the GI50 (SN12C) was 4.37 µM (inactive). The GI50 (SK-MEL-5) was 4.11 µM (inactive), the GI50 (UO-31) was 3.44 µM (inactive) and the GI50 (UACC-257) was 2.49 µM (inactive). For the same compound, the GI50 (RPMI-8226) was 1.59 µM (inactive), the GI50 (IGROV-1) was 3.39 µM (inactive) and the GI50 (HL-60) was 2.83 µM (inactive). The GI50 (SF-295) was 4.1 µM (inactive) and the GI50 (RXF 393) was 3.3 µM (inactive).

For `c1csc(C(NC2=NCCO2)C2CC2)c1` (configuration not stated), the GI50 (MCF7) was > 100 µM (inactive), the GI50 (A549) was > 100 µM (inactive) and the GI50 (HOP-92) was 93.5 µM (inactive). The GI50 (HCT-116) was > 100 µM (inactive), the GI50 (SR) was > 100 µM (inactive) and the GI50 (NCI-H460) was > 100 µM (inactive). The GI50 (MOLT-4) was > 100 µM (inactive), the GI50 (HOP-62) was > 100 µM (inactive) and the GI50 (SN12C) was > 100 µM (inactive). For the same compound, the GI50 (SK-MEL-5) was > 100 µM (inactive), the GI50 (UO-31) was > 100 µM (inactive) and the GI50 (RPMI-8226) was > 100 µM (inactive). For the same compound, the GI50 (IGROV-1) was > 100 µM (inactive), the GI50 (SF-295) was > 100 µM (inactive) and the GI50 (RXF 393) was > 100 µM (inactive).

In the case of `c1cc2nnnn2nc1N1CCCC1`, the GI50 (MCF7) is reported as > 100 µM (inactive), the GI50 (CCRF-CEM) is reported as > 100 µM (inactive) and the GI50 (A549) is reported as > 100 µM (inactive). The GI50 (HOP-92) was > 100 µM (inactive), the GI50 (HCT-116) was > 100 µM (inactive) and the GI50 (786-0) was > 100 µM (inactive). The GI50 (SR) was > 100 µM (inactive), the GI50 (NCI-H460) was > 100 µM (inactive) and the GI50 (MOLT-4) was > 100 µM (inactive). The GI50 (SN12C) was > 100 µM (inactive), the GI50 (SK-MEL-5) was > 100 µM (inactive) and the GI50 (UO-31) was > 100 µM (inactive). For the same compound, the GI50 (UACC-257) was > 100 µM (inactive), the GI50 (RPMI-8226) was > 100 µM (inactive) and the GI50 (HL-60) was > 100 µM (inactive). For the same compound, the GI50 (SF-295) was > 100 µM (inactive) and the GI50 (RXF 393) was > 100 µM (inactive).

With `C=C1c2nc3ccccc3n2C=C(c2ccc(OC)cc2)N1c1ccc(OCCN2CCCCC2)cc1` the GI50 (MCF7) was 9.16 µM (inactive), the GI50 (CCRF-CEM) was 2.79 µM (inactive) and the GI50 (A549) was 17.6 µM (inactive). The GI50 (HOP-92) was 28.1 µM (inactive), the GI50 (HCT-116) was 5.83 µM (inactive) and the GI50 (786-0) was 14.2 µM (inactive). For the same compound, the GI50 (SR) was 4.44 µM (inactive), the GI50 (NCI-H460) was 2.47 µM (inactive) and the GI50 (MOLT-4) was 2.58 µM (inactive). For the same compound, the GI50 (HOP-62) was 35.6 µM (inactive), the GI50 (OVCAR-3) was 19.9 µM (inactive) and the GI50 (SN12C) was 27.1 µM (inactive). For the same compound, the GI50 (SK-MEL-5) was 7.45 µM (inactive), the GI50 (UO-31) was 8.22 µM (inactive) and the GI50 (UACC-257) was 1.49 µM (inactive). For the same compound, the GI50 (RPMI-8226) was 2.9 µM (inactive), the GI50 (IGROV-1) was 12.4 µM (inactive) and the GI50 (HL-60) was 3.58 µM (inactive). For the same compound, the GI50 (SF-295) was 8.85 µM (inactive) and the GI50 (RXF 393) was 27.6 µM (inactive).

In the case of `CCN(CC)C(=S)SS(=O)(=O)c1cccc(N)c1`, the GI50 (MCF7) is reported as > 100 µM (inactive), the GI50 (A549) is reported as > 100 µM (inactive) and the GI50 (HOP-92) is reported as > 100 µM (inactive). For the same compound, the GI50 (HCT-116) was > 100 µM (inactive), the GI50 (786-0) was > 100 µM (inactive) and the GI50 (SR) was > 100 µM (inactive). The GI50 (NCI-H460) was > 100 µM (inactive), the GI50 (MOLT-4) was > 100 µM (inactive) and the GI50 (HOP-62) was > 100 µM (inactive). The GI50 (OVCAR-3) was > 100 µM (inactive), the GI50 (SN12C) was > 100 µM (inactive) and the GI50 (SK-MEL-5) was > 100 µM (inactive). For the same compound, the GI50 (UO-31) was > 100 µM (inactive), the GI50 (UACC-257) was > 100 µM (inactive) and the GI50 (RPMI-8226) was > 100 µM (inactive). The GI50 (SF-295) was > 100 µM (inactive) and the GI50 (RXF 393) was > 100 µM (inactive).

In the case of `Cc1ccc2nc(SCC(=O)N/N=C3\C(=O)Nc4ccccc43)n(-c3ccccc3)c(=O)c2c1`, the GI50 (MCF7) is reported as 16.1 µM (inactive), the GI50 (CCRF-CEM) is reported as 18.4 µM (inactive) and the GI50 (A549) is reported as 15.2 µM (inactive). The GI50 (HOP-92) was 14.3 µM (inactive), the GI50 (HCT-116) was 15.1 µM (inactive) and the GI50 (786-0) was 16 µM (inactive). The GI50 (SR) was 19.5 µM (inactive), the GI50 (NCI-H460) was 15.6 µM (inactive) and the GI50 (MOLT-4) was 17.6 µM (inactive). The GI50 (HOP-62) was 12.2 µM (inactive), the GI50 (OVCAR-3) was 18.8 µM (inactive) and the GI50 (SN12C) was 15.7 µM (inactive). For the same compound, the GI50 (SK-MEL-5) was 15.7 µM (inactive), the GI50 (UO-31) was 2.02 µM (inactive) and the GI50 (UACC-257) was 24 µM (inactive). For the same compound, the GI50 (RPMI-8226) was 17.6 µM (inactive), the GI50 (HL-60) was 25.5 µM (inactive) and the GI50 (SF-295) was 15.8 µM (inactive). The GI50 (RXF 393) was 14.1 µM (inactive).

For `CCOC(=O)c1cc2c([nH]1)c(O)cc1c2ccn1Cc1ccccc1`, the GI50 (MCF7) was 12.5 µM (inactive), the GI50 (CCRF-CEM) was 10.8 µM (inactive) and the GI50 (A549) was 13.7 µM (inactive). For the same compound, the GI50 (HOP-92) was 13.5 µM (inactive), the GI50 (HCT-116) was 11.6 µM (inactive) and the GI50 (786-0) was 18.1 µM (inactive). For the same compound, the GI50 (SR) was 1.03 µM (active), the GI50 (NCI-H460) was 19.5 µM (inactive) and the GI50 (MOLT-4) was 1.91 µM (inactive). The GI50 (HOP-62) was 17.7 µM (inactive), the GI50 (OVCAR-3) was 14.6 µM (inactive) and the GI50 (SN12C) was 20.2 µM (inactive). The GI50 (SK-MEL-5) was 12.1 µM (inactive), the GI50 (UO-31) was 14.9 µM (inactive) and the GI50 (UACC-257) was 19.7 µM (inactive). For the same compound, the GI50 (RPMI-8226) was 8.41 µM (inactive), the GI50 (IGROV-1) was 19.3 µM (inactive) and the GI50 (HL-60) was 13 µM (inactive). For the same compound, the GI50 (SF-295) was 15.8 µM (inactive) and the GI50 (RXF 393) was 7.8 µM (inactive).

In the case of `Cc1ccc(NC=O)c(-c2c(N)[nH]c(=S)[nH]c2=O)c1`, the GI50 (MCF7) is reported as > 100 µM (inactive), the GI50 (CCRF-CEM) is reported as > 100 µM (inactive) and the GI50 (A549) is reported as > 100 µM (inactive). The GI50 (HOP-92) was > 100 µM (inactive), the GI50 (HCT-116) was > 100 µM (inactive) and the GI50 (786-0) was > 100 µM (inactive). For the same compound, the GI50 (SR) was > 100 µM (inactive), the GI50 (MOLT-4) was > 100 µM (inactive) and the GI50 (HOP-62) was > 100 µM (inactive). For the same compound, the GI50 (OVCAR-3) was 94.2 µM (inactive), the GI50 (SN12C) was > 100 µM (inactive) and the GI50 (SK-MEL-5) was > 100 µM (inactive). The GI50 (UO-31) was > 100 µM (inactive), the GI50 (UACC-257) was > 100 µM (inactive) and the GI50 (RPMI-8226) was > 100 µM (inactive). For the same compound, the GI50 (IGROV-1) was > 100 µM (inactive), the GI50 (HL-60) was > 100 µM (inactive) and the GI50 (SF-295) was > 100 µM (inactive). The GI50 (RXF 393) was > 100 µM (inactive).
